According to the NIST ThermoML archive (doi:10.1021/acs.jced.5b00474):
Numbers after ± are expanded uncertainties.

Test: xn = mol fraction of the nth substance listed
Details: 101 kPa, Liquid; for mass density: Vibrating tube method; for speed of sound: Frequency=3 MHz, Sing-around technique in a fixed-path interferometer

CN1CCCC1=O [N-methylpyrrolidone] + CC#N
Details | mass density [kg/m3] | speed of sound [m/s]
293.15 K, x1 = 0.0997 | 826.597 ± 0.51 | –
293.15 K, x1 = 0.2019 | 865.011 ± 0.51 | –
293.15 K, x1 = 0.2953 | 895.168 ± 0.51 | –
293.15 K, x1 = 0.4033 | 925.343 ± 0.51 | –
293.15 K, x1 = 0.4999 | 948.634 ± 0.51 | –
293.15 K, x1 = 0.5645 | 962.588 ± 0.51 | –
293.15 K, x1 = 0.6971 | 987.869 ± 0.51 | –
293.15 K, x1 = 0.7909 | 1002.68 ± 0.51 | –
293.15 K, x1 = 0.8906 | 1018.29 ± 0.51 | –
293.15 K, x1 = 1 | 1032.25 ± 0.51 | –
298.15 K, x1 = 0.0997 | 821.365 ± 0.52 | 1311.6 ± 0.88
298.15 K, x1 = 0.2019 | 859.919 ± 0.52 | 1345.4 ± 0.89
298.15 K, x1 = 0.2953 | 890.188 ± 0.52 | 1375 ± 0.89
298.15 K, x1 = 0.4033 | 920.48 ± 0.51 | 1407.6 ± 0.9
298.15 K, x1 = 0.4999 | 943.847 ± 0.51 | 1434.4 ± 0.91
298.15 K, x1 = 0.5645 | 957.857 ± 0.51 | 1450.8 ± 0.92
298.15 K, x1 = 0.6971 | 983.231 ± 0.51 | 1483.7 ± 0.92
298.15 K, x1 = 0.7909 | 998.089 ± 0.51 | 1503.3 ± 0.94
298.15 K, x1 = 0.8906 | 1013.76 ± 0.51 | 1524.8 ± 0.93
298.15 K, x1 = 1 | 1027.79 ± 0.51 | 1544.6 ± 0.94
303.15 K, x1 = 0.0997 | 816.101 ± 0.52 | 1291.8 ± 0.88
303.15 K, x1 = 0.2019 | 854.802 ± 0.52 | 1325.7 ± 0.89
303.15 K, x1 = 0.2953 | 885.193 ± 0.52 | 1355.4 ± 0.89
303.15 K, x1 = 0.4033 | 915.6 ± 0.51 | 1387.9 ± 0.91
303.15 K, x1 = 0.4999 | 939.067 ± 0.51 | 1414.8 ± 0.91
303.15 K, x1 = 0.5645 | 953.126 ± 0.51 | 1430.7 ± 0.92
303.15 K, x1 = 0.6971 | 978.597 ± 0.51 | 1463.6 ± 0.93
303.15 K, x1 = 0.7909 | 993.514 ± 0.51 | 1483.2 ± 0.93
303.15 K, x1 = 0.8906 | 1009.25 ± 0.51 | 1505.1 ± 0.93
303.15 K, x1 = 1 | 1023.33 ± 0.51 | 1525.3 ± 0.93
308.15 K, x1 = 0.0997 | 810.812 ± 0.52 | 1272 ± 0.88
308.15 K, x1 = 0.2019 | 849.665 ± 0.52 | 1306 ± 0.88
308.15 K, x1 = 0.2953 | 880.18 ± 0.52 | 1335.8 ± 0.89
308.15 K, x1 = 0.4033 | 910.709 ± 0.51 | 1367.7 ± 0.9
308.15 K, x1 = 0.4999 | 934.271 ± 0.51 | 1394.8 ± 0.91
308.15 K, x1 = 0.5645 | 948.386 ± 0.51 | 1410.4 ± 0.91
308.15 K, x1 = 0.6971 | 973.957 ± 0.51 | 1443.4 ± 0.92
308.15 K, x1 = 0.7909 | 988.935 ± 0.51 | 1462.8 ± 0.93
308.15 K, x1 = 0.8906 | 1004.73 ± 0.51 | 1485.2 ± 0.93
308.15 K, x1 = 1 | 1018.87 ± 0.51 | 1506 ± 0.93
313.15 K, x1 = 0.0997 | 805.495 ± 0.52 | 1252.2 ± 0.87
313.15 K, x1 = 0.2019 | 844.503 ± 0.52 | 1286.4 ± 0.88
313.15 K, x1 = 0.2953 | 875.146 ± 0.52 | 1316.3 ± 0.88
313.15 K, x1 = 0.4033 | 905.801 ± 0.51 | 1347.6 ± 0.9
313.15 K, x1 = 0.4999 | 929.461 ± 0.51 | 1374.7 ± 0.9
313.15 K, x1 = 0.5645 | 943.637 ± 0.51 | 1390.2 ± 0.91
313.15 K, x1 = 0.6971 | 969.311 ± 0.51 | 1423.3 ± 0.92
313.15 K, x1 = 0.7909 | 984.35 ± 0.51 | 1442.6 ± 0.92
313.15 K, x1 = 0.8906 | 1000.21 ± 0.51 | 1465.5 ± 0.92
313.15 K, x1 = 1 | 1014.41 ± 0.51 | 1486.8 ± 0.92
318.15 K, x1 = 0.0997 | 800.149 ± 0.52 | 1232.4 ± 0.87
318.15 K, x1 = 0.2019 | 839.318 ± 0.52 | 1266.8 ± 0.87
318.15 K, x1 = 0.2953 | 870.091 ± 0.52 | 1296.9 ± 0.88
318.15 K, x1 = 0.4999 | 924.64 ± 0.51 | 1354.8 ± 0.9
318.15 K, x1 = 0.7909 | 979.759 ± 0.51 | 1422.4 ± 0.92
318.15 K, x1 = 0.8906 | 995.681 ± 0.51 | 1445.9 ± 0.92
318.15 K, x1 = 1 | 1009.95 ± 0.51 | 1467.8 ± 0.92
318.16 K, x1 = 0.4033 | 900.875 ± 0.51 | 1327.4 ± 0.89
318.16 K, x1 = 0.5645 | 938.874 ± 0.51 | 1370.2 ± 0.9
318.16 K, x1 = 0.6971 | 964.657 ± 0.51 | 1403.3 ± 0.91
323.15 K, x1 = 0.4033 | 895.938 ± 0.52 | 1307.5 ± 0.88
323.16 K, x1 = 0.0997 | 794.775 ± 0.54 | 1212.6 ± 0.86
323.16 K, x1 = 0.2019 | 834.109 ± 0.53 | 1247.3 ± 0.87
323.16 K, x1 = 0.2953 | 865.017 ± 0.52 | 1277.6 ± 0.89
323.16 K, x1 = 0.4999 | 919.805 ± 0.52 | 1335 ± 0.9
323.16 K, x1 = 0.5645 | 934.1 ± 0.52 | 1350.3 ± 0.89
323.16 K, x1 = 0.6971 | 959.996 ± 0.52 | 1383.4 ± 0.92
323.16 K, x1 = 0.7909 | 975.164 ± 0.51 | 1402.4 ± 0.9
323.16 K, x1 = 0.8906 | 991.156 ± 0.51 | 1426.5 ± 0.92
323.16 K, x1 = 1 | 1005.48 ± 0.51 | 1448.9 ± 0.91

ClC(Cl)Cl [trichloromethane] + CN1CCCC1=O
Details | mass density [kg/m3] | speed of sound [m/s]
293.14 K, x2 = 0.1079 | 1437.79 ± 0.56 | 1051.6 ± 0.8
293.15 K, x2 = 0 | 1488.55 ± 0.57 | 1000.9 ± 0.78
293.15 K, x2 = 0.1061 | 1438.96 ± 0.56 | 1050 ± 0.79
293.15 K, x2 = 0.2054 | 1390.74 ± 0.55 | 1098.6 ± 0.81
293.15 K, x2 = 0.2994 | 1345.24 ± 0.54 | 1146 ± 0.81
293.15 K, x2 = 0.4032 | 1294.06 ± 0.54 | 1198.4 ± 0.84
293.15 K, x2 = 0.4961 | 1249.81 ± 0.53 | 1248.4 ± 0.85
293.15 K, x2 = 0.6006 | 1201.33 ± 0.53 | 1307.8 ± 0.87
293.15 K, x2 = 0.6854 | 1163.12 ± 0.52 | 1359.8 ± 0.88
293.15 K, x2 = 0.7986 | 1114.37 ± 0.52 | 1430.8 ± 0.92
298.14 K, x2 = 0.1079 | 1429.34 ± 0.56 | 1034.9 ± 0.79
298.14 K, x2 = 0.2994 | 1338.24 ± 0.54 | 1130.2 ± 0.81
298.14 K, x2 = 0.7986 | 1109.43 ± 0.52 | 1413 ± 0.9
298.15 K, x2 = 0 | 1479.07 ± 0.57 | 984.33 ± 0.78
298.15 K, x2 = 0.2054 | 1383.07 ± 0.55 | 1082.1 ± 0.81
298.15 K, x2 = 0.4032 | 1287.66 ± 0.54 | 1181.9 ± 0.83
298.15 K, x2 = 0.4961 | 1243.85 ± 0.53 | 1231.9 ± 0.84
298.15 K, x2 = 0.6006 | 1195.78 ± 0.52 | 1290.7 ± 0.86
298.15 K, x2 = 0.6854 | 1157.85 ± 0.52 | 1342.1 ± 0.88
298.16 K, x2 = 0.1061 | 1430.5 ± 0.56 | 1033.6 ± 0.79
303.14 K, x2 = 0.1079 | 1420.85 ± 0.56 | 1018.3 ± 0.8
303.14 K, x2 = 0.2994 | 1331.2 ± 0.54 | 1114.1 ± 0.81
303.14 K, x2 = 0.7986 | 1104.48 ± 0.52 | 1395.1 ± 0.89
303.15 K, x2 = 0.1061 | 1422 ± 0.56 | 1016.3 ± 0.8
303.15 K, x2 = 0.2054 | 1375.36 ± 0.55 | 1065.2 ± 0.8
303.15 K, x2 = 0.4032 | 1281.24 ± 0.54 | 1165.2 ± 0.83
303.15 K, x2 = 0.4961 | 1237.89 ± 0.53 | 1215.2 ± 0.84
303.15 K, x2 = 0.6006 | 1190.22 ± 0.52 | 1273.5 ± 0.86
303.15 K, x2 = 0.6854 | 1152.57 ± 0.52 | 1324.2 ± 0.87
303.16 K, x2 = 0 | 1469.52 ± 0.57 | 967.53 ± 0.78
308.14 K, x2 = 0.1079 | 1412.32 ± 0.56 | 1001.8 ± 0.78
308.14 K, x2 = 0.2994 | 1324.14 ± 0.54 | 1098.1 ± 0.82
308.14 K, x2 = 0.7986 | 1099.52 ± 0.51 | 1377.3 ± 0.88
308.15 K, x2 = 0 | 1459.91 ± 0.57 | 950.62 ± 0.78
308.15 K, x2 = 0.1061 | 1413.45 ± 0.56 | 999.25 ± 0.8
308.15 K, x2 = 0.2054 | 1367.63 ± 0.55 | 1048.3 ± 0.79
308.15 K, x2 = 0.4032 | 1274.79 ± 0.53 | 1148.5 ± 0.81
308.15 K, x2 = 0.4961 | 1231.6 ± 0.53 | 1198.6 ± 0.83
308.15 K, x2 = 0.6006 | 1184.64 ± 0.52 | 1256.3 ± 0.84
308.15 K, x2 = 0.6854 | 1147.28 ± 0.52 | 1306.2 ± 0.86
